Results published in the kinase profiling compilation of Christmann-Franck et al. (2016).

What was measured:
Settings in all cases: compound 10.0 µM
BLK (human) = BLK (human) (UniProt P51451)
CAMK2B (human) = CAMK2B (human) (UniProt Q13554)
CAMK2D (human) = CAMK2D (human) (UniProt Q13557)
CAMKK1 (human) = CAMKK1 (human) (UniProt Q8N5S9)
CAMKK2 (human) = CAMKK2 (human) (UniProt Q96RR4)
CDC42BPB (human) = CDC42BPB (human) (UniProt Q9Y5S2)
CDC42BPG (human) = CDC42BPG (human) (UniProt Q6DT37)
CDK3 (human) = CDK3 (human) (UniProt Q00526)
Chain of CDK3 (human) (Q00526 whole entry, looked up): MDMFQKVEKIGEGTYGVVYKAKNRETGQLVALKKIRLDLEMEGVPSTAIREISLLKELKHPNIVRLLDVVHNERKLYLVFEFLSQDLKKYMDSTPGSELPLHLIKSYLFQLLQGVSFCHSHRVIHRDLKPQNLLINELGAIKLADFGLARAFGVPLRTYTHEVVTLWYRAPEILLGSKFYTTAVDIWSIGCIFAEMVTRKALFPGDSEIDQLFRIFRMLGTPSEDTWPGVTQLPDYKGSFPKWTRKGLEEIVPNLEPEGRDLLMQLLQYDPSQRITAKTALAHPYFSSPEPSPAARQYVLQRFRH

CDK4 CCND1 (human) = CDK4 CCND1 (human) (UniProt P11802+P24385)
CDK4 CCND3 (human) = CDK4 CCND3 (human) (UniProt P11802+P30281)
CDK5 (human) = CDK5 (human) (UniProt Q00535)
CLK3 (human) = CLK3 (human) (UniProt P49761)
CSK (human) = CSK (human) (UniProt P41240)
DCLK1 (human) = DCLK1 (human) (UniProt O15075)
DCLK3 (human) = DCLK3 (human) (UniProt Q9C098)
[1] = system: EIF2AK4 KD2 (human), Q9P2K8 [S808G]
ERBB3 (human) = ERBB3 (human) (UniProt P21860)
[2] = system: KIT (human), P10721 [V559D]
MAP3K6 (human) = MAP3K6 (human) (UniProt O95382)
MAP4K3 (human) = MAP4K3 (human) (UniProt Q8IVH8)
MAP4K5 (human) = MAP4K5 (human) (UniProt Q9Y4K4)
MERTK (human) = MERTK (human) (UniProt Q12866)
MINK1 (human) = MINK1 (human) (UniProt Q8N4C8)
PDGFRA (human) = PDGFRA (human) (UniProt P16234)
Chain of PDGFRA (human) (P16234 whole entry, looked up): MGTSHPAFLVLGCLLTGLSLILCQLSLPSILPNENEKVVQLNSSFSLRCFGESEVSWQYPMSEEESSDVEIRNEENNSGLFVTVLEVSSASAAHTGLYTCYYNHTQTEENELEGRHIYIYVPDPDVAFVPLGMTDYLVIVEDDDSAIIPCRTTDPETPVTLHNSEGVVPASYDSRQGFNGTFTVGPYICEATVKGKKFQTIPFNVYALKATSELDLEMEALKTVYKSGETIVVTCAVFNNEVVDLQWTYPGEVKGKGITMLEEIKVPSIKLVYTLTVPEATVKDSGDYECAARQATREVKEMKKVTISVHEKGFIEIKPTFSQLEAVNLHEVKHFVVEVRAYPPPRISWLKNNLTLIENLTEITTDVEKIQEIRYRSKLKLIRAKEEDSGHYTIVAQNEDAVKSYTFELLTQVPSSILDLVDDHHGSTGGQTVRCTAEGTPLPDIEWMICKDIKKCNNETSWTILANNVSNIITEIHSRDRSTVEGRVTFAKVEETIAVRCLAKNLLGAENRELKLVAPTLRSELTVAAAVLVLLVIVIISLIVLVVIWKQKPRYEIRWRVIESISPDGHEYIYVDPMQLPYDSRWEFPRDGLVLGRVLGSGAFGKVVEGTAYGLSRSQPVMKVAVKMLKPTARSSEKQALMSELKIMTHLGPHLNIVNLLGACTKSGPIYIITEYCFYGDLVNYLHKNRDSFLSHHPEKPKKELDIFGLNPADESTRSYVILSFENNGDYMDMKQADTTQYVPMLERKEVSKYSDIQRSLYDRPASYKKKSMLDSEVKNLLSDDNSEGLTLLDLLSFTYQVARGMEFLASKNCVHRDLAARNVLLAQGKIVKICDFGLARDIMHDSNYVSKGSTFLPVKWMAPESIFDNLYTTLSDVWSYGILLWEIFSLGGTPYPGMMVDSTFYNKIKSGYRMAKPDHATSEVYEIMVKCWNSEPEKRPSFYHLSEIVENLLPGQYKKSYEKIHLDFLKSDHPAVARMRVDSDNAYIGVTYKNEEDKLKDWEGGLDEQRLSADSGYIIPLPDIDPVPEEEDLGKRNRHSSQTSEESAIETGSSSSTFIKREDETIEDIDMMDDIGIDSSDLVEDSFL

PIM3 (human) = PIM3 (human) (UniProt Q86V86)
PKN2 (human) = PKN2 (human) (UniProt Q16513)
RAF1 (human) = RAF1 (human) (UniProt P04049)
[3] = system: RET (human), P07949 [V804M]
RIPK2 (human) = RIPK2 (human) (UniProt O43353)
SBK1 (human) = SBK1 (human) (UniProt Q52WX2)
SGK3 (human) = SGK3 (human) (UniProt Q96BR1)
STK16 (human) = STK16 (human) (UniProt O75716)
STK24 (human) = STK24 (human) (UniProt Q9Y6E0)
STK38L (human) = STK38L (human) (UniProt Q9Y2H1)
STK39 (human) = STK39 (human) (UniProt Q9UEW8)
TLK1 (human) = TLK1 (human) (UniProt Q9UKI8)
TNIK (human) = TNIK (human) (UniProt Q9UKE5)
TYRO3 (human) = TYRO3 (human) (UniProt Q06418)
ULK1 (human) = ULK1 (human) (UniProt O75385)
ULK2 (human) = ULK2 (human) (UniProt Q8IYT8)
Chain of ULK2 (human) (Q8IYT8 whole entry, looked up): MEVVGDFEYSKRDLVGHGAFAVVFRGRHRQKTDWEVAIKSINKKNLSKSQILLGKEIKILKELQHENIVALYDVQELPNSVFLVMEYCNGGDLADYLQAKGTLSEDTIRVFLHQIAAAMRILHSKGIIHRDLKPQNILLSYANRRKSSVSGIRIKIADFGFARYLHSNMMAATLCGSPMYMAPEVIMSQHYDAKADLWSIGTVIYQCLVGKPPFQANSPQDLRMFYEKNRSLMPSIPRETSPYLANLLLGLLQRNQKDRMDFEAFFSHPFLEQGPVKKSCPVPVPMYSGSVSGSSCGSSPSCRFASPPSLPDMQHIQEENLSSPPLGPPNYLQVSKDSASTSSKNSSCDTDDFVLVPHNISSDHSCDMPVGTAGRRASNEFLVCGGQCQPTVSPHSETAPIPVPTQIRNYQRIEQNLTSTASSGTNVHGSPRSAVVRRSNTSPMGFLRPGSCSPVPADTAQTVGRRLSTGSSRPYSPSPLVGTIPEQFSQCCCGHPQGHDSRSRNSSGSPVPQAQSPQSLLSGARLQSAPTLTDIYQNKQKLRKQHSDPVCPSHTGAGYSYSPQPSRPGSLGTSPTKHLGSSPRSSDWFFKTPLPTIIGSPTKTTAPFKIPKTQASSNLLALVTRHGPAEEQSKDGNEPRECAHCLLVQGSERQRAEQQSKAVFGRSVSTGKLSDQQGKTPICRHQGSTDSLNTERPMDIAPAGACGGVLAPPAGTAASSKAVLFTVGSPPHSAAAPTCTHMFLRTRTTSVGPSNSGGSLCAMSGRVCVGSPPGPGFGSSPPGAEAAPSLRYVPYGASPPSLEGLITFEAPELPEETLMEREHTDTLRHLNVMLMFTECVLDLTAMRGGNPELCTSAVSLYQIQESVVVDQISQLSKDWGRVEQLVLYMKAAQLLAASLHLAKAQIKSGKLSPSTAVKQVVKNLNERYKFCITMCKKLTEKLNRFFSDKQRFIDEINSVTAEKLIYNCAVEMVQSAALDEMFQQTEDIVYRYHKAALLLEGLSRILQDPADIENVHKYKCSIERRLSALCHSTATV

ZAP70 (human) = ZAP70 (human) (UniProt P43403)
Chain of ZAP70 (human) (P43403 whole entry, looked up): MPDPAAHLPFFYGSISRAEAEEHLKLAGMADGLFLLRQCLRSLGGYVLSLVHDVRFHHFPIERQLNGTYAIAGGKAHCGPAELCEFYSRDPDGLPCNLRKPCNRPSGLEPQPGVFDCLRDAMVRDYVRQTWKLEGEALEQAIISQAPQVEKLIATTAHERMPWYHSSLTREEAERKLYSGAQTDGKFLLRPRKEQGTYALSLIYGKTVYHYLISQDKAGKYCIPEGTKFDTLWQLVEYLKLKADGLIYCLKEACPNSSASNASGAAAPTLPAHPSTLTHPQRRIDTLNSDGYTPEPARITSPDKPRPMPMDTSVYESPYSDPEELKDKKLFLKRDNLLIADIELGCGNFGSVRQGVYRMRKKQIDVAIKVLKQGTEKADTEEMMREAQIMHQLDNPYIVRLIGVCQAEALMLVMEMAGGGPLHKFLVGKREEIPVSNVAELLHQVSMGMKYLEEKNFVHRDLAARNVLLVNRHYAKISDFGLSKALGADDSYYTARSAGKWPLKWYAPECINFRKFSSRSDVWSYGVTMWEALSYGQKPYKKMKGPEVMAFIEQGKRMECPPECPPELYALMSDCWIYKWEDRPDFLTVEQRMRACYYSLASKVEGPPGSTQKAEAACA

Chain of CAMKK1 (human) (Q8N5S9 whole entry, looked up): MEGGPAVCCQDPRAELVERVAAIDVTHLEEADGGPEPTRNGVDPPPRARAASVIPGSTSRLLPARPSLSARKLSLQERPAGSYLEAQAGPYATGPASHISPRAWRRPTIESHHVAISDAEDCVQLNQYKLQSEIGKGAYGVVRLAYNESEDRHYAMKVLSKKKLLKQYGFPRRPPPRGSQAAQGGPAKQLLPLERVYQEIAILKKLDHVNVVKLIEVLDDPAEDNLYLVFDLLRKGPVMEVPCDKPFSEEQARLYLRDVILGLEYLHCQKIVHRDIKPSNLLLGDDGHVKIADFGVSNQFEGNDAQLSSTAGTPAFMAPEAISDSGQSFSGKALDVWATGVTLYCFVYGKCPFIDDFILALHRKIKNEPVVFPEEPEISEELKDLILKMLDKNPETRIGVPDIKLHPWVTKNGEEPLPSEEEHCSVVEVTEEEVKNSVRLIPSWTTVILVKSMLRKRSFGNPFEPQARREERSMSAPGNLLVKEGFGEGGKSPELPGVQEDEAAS
Chain of CDC42BPG (human) (Q6DT37 whole entry, looked up): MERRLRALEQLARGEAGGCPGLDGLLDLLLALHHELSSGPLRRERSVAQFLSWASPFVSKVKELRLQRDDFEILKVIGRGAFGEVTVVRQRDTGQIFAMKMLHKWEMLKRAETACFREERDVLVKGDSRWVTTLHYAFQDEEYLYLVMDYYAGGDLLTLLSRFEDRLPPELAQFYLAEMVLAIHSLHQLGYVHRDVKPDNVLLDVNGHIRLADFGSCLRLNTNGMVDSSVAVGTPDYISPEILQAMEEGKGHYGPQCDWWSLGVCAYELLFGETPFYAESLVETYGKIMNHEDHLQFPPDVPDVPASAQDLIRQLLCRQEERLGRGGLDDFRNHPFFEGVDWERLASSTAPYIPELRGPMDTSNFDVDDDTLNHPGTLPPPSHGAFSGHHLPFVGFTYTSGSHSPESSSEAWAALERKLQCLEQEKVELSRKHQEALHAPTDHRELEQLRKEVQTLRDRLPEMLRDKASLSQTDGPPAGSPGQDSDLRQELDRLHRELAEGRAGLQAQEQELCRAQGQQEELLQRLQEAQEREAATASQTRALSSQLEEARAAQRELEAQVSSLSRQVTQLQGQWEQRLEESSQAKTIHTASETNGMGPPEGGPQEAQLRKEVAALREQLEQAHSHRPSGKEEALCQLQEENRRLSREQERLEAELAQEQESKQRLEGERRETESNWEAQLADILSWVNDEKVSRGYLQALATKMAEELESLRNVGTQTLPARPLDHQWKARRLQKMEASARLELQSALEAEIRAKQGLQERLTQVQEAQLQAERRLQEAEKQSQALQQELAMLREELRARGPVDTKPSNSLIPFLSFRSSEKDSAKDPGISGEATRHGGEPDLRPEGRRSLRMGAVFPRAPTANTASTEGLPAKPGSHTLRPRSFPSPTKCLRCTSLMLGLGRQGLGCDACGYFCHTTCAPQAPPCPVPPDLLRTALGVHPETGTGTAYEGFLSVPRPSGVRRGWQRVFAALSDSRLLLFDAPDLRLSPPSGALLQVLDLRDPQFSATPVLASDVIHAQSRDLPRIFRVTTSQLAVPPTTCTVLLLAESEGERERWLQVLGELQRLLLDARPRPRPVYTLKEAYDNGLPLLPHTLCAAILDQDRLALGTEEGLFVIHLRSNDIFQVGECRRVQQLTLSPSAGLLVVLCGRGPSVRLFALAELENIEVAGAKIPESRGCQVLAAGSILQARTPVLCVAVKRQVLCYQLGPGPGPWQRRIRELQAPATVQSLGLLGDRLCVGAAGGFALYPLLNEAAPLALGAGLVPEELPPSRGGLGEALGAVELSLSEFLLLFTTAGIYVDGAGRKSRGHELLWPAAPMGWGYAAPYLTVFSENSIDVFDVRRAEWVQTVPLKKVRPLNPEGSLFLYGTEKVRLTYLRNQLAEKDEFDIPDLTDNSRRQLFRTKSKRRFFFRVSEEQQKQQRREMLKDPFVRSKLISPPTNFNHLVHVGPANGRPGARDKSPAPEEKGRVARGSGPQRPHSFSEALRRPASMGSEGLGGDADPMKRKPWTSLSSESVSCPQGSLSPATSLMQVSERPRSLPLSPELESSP

SMILES: CNC(=O)c1cc(Oc2ccc(NC(=O)Nc3ccc(Cl)c(C(F)(F)F)c3)cc2)ccn1
- per cent of control (BLK (human)): 28%
- per cent of control (CAMK2B (human)): 96%
- per cent of control (CAMK2D (human)): 89%
- per cent of control (CAMKK1 (human)): 100%
- per cent of control (CAMKK2 (human)): 100%
- per cent of control (CDC42BPB (human)): 100%
- per cent of control (CDC42BPG (human)): 84%
- per cent of control (CDK3 (human)): 41%
- per cent of control (CDK4 CCND1 (human)): 66%
- per cent of control (CDK4 CCND3 (human)): 100%
- per cent of control (CDK5 (human)): 22%
- per cent of control (CLK3 (human)): 84%
- per cent of control (CSK (human)): 52%
- per cent of control (DCLK1 (human)): 62%
- per cent of control (DCLK3 (human)): 100%
- per cent of control [1]: 60%
- per cent of control (ERBB3 (human)): 70%
- per cent of control [2]: 0%
- per cent of control (MAP3K6 (human)): 72%
- per cent of control (MAP4K3 (human)): 48%
- per cent of control (MAP4K5 (human)): 1.5%
- per cent of control (MERTK (human)): 2.4%
- per cent of control (MINK1 (human)): 80%
- per cent of control (PDGFRA (human)): 0%
- per cent of control (PIM3 (human)): 100%
- per cent of control (PKN2 (human)): 100%
- per cent of control (RAF1 (human)): 0.7%
- per cent of control [3]: 0%
- per cent of control (RIPK2 (human)): 5.3%
- per cent of control (SBK1 (human)): 100%
- per cent of control (SGK3 (human)): 72%
- per cent of control (STK16 (human)): 94%
- per cent of control (STK24 (human)): 81%
- per cent of control (STK38L (human)): 95%
- per cent of control (STK39 (human)): 76%
- per cent of control (TLK1 (human)): 74%
- per cent of control (TNIK (human)): 21%
- per cent of control (TYRO3 (human)): 100%
- per cent of control (ULK1 (human)): 89%
- per cent of control (ULK2 (human)): 94%
- per cent of control (ZAP70 (human)): 91%

SMILES: CNC(=O)c1cc(Oc2ccc(NC(=O)Nc3ccc(Cl)c(C(F)(F)F)c3)cc2)cc[n+]1[O-]
- per cent of control (BLK (human)): 11%
- per cent of control (CAMK2B (human)): 89%
- per cent of control (CAMK2D (human)): 87%
- per cent of control (CAMKK1 (human)): 79%
- per cent of control (CAMKK2 (human)): 68%
- per cent of control (CDC42BPB (human)): 97%
- per cent of control (CDC42BPG (human)): 86%
- per cent of control (CDK3 (human)): 13%
- per cent of control (CDK4 CCND1 (human)): 74%
- per cent of control (CDK4 CCND3 (human)): 62%
- per cent of control (CDK5 (human)): 12%
- per cent of control (CLK3 (human)): 100%
- per cent of control (CSK (human)): 1%
- per cent of control (DCLK1 (human)): 53%
- per cent of control (DCLK3 (human)): 100%
- per cent of control [1]: 70%
- per cent of control (ERBB3 (human)): 62%
- per cent of control [2]: 0%
- per cent of control (MAP3K6 (human)): 64%
- per cent of control (MAP4K3 (human)): 12%
- per cent of control (MAP4K5 (human)): 0.45%
- per cent of control (MERTK (human)): 2%
- per cent of control (MINK1 (human)): 2.4%
- per cent of control (PDGFRA (human)): 0%
- per cent of control (PIM3 (human)): 100%
- per cent of control (PKN2 (human)): 91%
- per cent of control (RAF1 (human)): 0.45%
- per cent of control [3]: 0%
- per cent of control (RIPK2 (human)): 9.8%
- per cent of control (SBK1 (human)): 100%
- per cent of control (SGK3 (human)): 42%
- per cent of control (STK16 (human)): 81%
- per cent of control (STK24 (human)): 14%
- per cent of control (STK38L (human)): 100%
- per cent of control (STK39 (human)): 87%
- per cent of control (TLK1 (human)): 60%
- per cent of control (TNIK (human)): 3.9%
- per cent of control (TYRO3 (human)): 100%
- per cent of control (ULK1 (human)): 99%
- per cent of control (ULK2 (human)): 75%
- per cent of control (ZAP70 (human)): 77%
